Patent publication US7135501B2, “Clusianon isomers and use thereof” (priority 2001, dated 2006)

Key:
[1] = tested on: tumor cell lines, resistant subclones and non-tumor cell lines; assay: SRB assay, comparison across the cell line panel; format: cell-based
Protocol: Six unambiguously characterized tumor cell lines of human origin (native cell lines and those converted into resistant subclones) and two non-tumor cell lines are used for further investigations (table 2).
The sensitivity of the cell lines to the substance (I) is determined in a so-called sulforhodamine B (SRB) assay. This is a robust and highly reproducible standard method which is also established for example at the NCI (National Cancer Institute, USA) (Skehan et al. 1990).
The concentration of substance (I) which inhibits cell growth by 50% (IC50, determined from semilogarithmic dose versus effect plots) are indicated.

[2] = target: T1, topoisomerase I (Homo sapiens, UniProt P11387); assay: Topo I unwinding assay; format: biochemical; conditions: for concentration required for topoisomerase I inhibition as multiple of the IC50 of tumor cell growth: in vitro
T1 construct: 160 ng of cell nucleus extract with the topoisomerase I present therein; endogenous in cells
T1 sequence (P11387 1-765): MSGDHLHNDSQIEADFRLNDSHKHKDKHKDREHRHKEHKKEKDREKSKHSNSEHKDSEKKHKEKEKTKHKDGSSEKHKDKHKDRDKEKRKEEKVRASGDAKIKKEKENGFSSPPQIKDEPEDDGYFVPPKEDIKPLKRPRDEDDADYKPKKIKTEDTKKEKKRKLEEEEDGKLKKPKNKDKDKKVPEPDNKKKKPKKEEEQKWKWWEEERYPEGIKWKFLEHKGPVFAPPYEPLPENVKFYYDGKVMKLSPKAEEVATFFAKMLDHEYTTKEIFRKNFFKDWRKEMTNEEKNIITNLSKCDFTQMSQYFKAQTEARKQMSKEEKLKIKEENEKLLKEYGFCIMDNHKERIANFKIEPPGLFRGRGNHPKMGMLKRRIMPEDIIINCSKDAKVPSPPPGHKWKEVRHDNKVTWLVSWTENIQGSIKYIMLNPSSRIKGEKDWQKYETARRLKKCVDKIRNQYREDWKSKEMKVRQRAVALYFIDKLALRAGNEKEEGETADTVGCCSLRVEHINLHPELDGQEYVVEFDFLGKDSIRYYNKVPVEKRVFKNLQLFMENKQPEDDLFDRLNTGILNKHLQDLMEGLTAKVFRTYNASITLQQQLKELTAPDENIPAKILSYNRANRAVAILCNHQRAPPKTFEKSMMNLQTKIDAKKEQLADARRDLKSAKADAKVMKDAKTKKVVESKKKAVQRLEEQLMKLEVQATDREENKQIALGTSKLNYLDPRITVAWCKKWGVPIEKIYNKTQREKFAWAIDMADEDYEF
From the text: The assay is based on an ATP-independent unwinding of twisted pBR322 plasmid DNA dimers by topoisomerase I. The two different topological forms of the plasmid DNA, the twisted form and unwound, relaxed form, are separated in this investigation by means of an agarose gel. The enzyme topoisomerase I is obtained for this purpose from cell nucleus extracts of the tumor cell lines.
Cell nucleus extracts are obtained by the method of Sullivan with the modifications of Danks et al.

[3] = tested on: HCT8 WT bowel cancer cells; assay: Cell cycle analysis (BrdU/PI flow cytometry); format: cell-based, human; conditions: IC50 concentration, 24 hours
Protocol: Flow cytometric investigations by an adapted method of Tsugita M. et al. are used for the analysis.
Exponentially growing HCT8 WT bowel cancer cells are treated with substance (I) with the determined IC50 concentration for 24 hours, and then the cells are incubated with BrdU. The cells fixed with methanol are subjected to a treatment with a detergent (Triton X-100/HCl) in order to denature the DNA strands. After incubation with the fluorescence-labeled antibody (anti-BrdU mAb, FITC-labeled), the second fluorescent dye (PI, propidium iodide) is added.
The DNA content (propidium iodide fluorescence) and the amount of BrdU taken up (FITC fluorescence) are determined using a Coulter flow cytometer (Coulter EPICS XL). Exemplary results are depicted in FIGS. 3a and 3b.
FIGS. 3a and 3b show BrdU and PI uptakes into the DNA of HCT8 WT cells, untreated (control, […]) and treated with substance (I) (IC50, 24 hours, […]). The depicted results are representative of n=3 independent experiments.

[4] = tested on: H460 WT cells; assay: DNA double-strand breaks in [14C]d-thymidine-labeled cells, H460 WT; format: cell-based, human; conditions: up to 10 times the IC50 concentration, 6 hours
Protocol: (§1) DNA isolated after treatment of the cells for various times with substance (I) is for this purpose analyzed by gel electrophoresis.
(§2) Determination of the DNA double-strand breaks is performed on ^14C-labeled DNA. For this purpose, [^14C]d-thymidine-labeled cells are treated with various concentrations of substance (I). The DNA is isolated by an adapted method of Chia Chiao et al.
(§3) The DNA fractionated by gel electrophoresis is subsequently stained with ethidium bromide.
(§4) On a transilluminator (302 nm), the intact DNA which has not migrated in the electric field is separated from the fragmented DNA, which has thus migrated into the gel, by extraction. The isolated gel and DNA fragments are liquefied at +80° C. in the presence of hydrochloric acid. After addition of a scintillator it is possible to determine the radioactivity using a liquid scintillation meter (TPI-CARB 2100RT). The measured radioactivity is indicated in […] (cpm).
The results represent averages and their standard deviation from n=3 independent experiments.

[5] = tested on: HT29 WT; assay: DNA double-strand breaks, HT29 WT; format: cell-based, human
Protocol: as §1, §2, §3, §4

[6] = target: DNA polymerase (Thermus aquaticus, UniProt P19821); assay: Preliminary experiment with the TSR8 template; format: biochemical; conditions: maximum concentration 50 μg/ml
Chain of DNA polymerase (P19821 whole entry): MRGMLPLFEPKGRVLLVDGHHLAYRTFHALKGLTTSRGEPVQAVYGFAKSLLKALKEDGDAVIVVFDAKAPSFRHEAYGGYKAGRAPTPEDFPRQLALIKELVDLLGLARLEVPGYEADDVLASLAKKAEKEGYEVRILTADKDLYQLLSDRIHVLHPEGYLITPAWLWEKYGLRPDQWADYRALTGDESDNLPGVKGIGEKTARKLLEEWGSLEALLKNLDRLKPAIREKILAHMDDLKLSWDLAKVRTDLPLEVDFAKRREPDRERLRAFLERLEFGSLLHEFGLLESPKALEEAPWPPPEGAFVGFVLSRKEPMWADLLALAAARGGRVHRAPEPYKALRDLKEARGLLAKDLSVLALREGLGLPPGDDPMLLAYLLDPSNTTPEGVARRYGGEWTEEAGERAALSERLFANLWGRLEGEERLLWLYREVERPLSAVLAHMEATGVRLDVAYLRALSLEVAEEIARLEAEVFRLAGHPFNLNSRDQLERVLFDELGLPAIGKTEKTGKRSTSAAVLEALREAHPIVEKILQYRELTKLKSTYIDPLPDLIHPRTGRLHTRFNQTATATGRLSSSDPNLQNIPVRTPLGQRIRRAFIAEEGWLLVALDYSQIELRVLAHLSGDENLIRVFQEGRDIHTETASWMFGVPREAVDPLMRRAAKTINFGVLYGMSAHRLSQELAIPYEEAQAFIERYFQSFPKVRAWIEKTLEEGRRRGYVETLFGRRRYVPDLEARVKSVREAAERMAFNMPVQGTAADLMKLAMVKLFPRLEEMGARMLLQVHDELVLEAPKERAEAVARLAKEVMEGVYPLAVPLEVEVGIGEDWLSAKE
Protocol: In order to ensure the effect of substance (I) on telomerase, an effect of substance (I) on DNA polymerase must be ruled out. In a preliminary experiment with TSR8 as internal control, the effect of substance (I) at various concentration levels was ruled out.
Amplification of the TSR8 template depends only on DNA polymerase. Every inhibitor of this enzyme can be detected using the substrate.
The experiment is carried out in triplicates.

[7] = target: T2, human telomerase (Homo sapiens, UniProt O14746); assay: Telomeric Repeat Amplification Assay (TRAP) ELISA; format: biochemical; conditions: at 50 μg/ml; telomerase from HCT8 WT colon carcinoma cells
T2 construct: human telomerase obtained from cells of a colon carcinoma (HCT8 WT); endogenous in cells; host or cells: HCT8 WT colon carcinoma cells
T2 sequence (O14746 whole entry): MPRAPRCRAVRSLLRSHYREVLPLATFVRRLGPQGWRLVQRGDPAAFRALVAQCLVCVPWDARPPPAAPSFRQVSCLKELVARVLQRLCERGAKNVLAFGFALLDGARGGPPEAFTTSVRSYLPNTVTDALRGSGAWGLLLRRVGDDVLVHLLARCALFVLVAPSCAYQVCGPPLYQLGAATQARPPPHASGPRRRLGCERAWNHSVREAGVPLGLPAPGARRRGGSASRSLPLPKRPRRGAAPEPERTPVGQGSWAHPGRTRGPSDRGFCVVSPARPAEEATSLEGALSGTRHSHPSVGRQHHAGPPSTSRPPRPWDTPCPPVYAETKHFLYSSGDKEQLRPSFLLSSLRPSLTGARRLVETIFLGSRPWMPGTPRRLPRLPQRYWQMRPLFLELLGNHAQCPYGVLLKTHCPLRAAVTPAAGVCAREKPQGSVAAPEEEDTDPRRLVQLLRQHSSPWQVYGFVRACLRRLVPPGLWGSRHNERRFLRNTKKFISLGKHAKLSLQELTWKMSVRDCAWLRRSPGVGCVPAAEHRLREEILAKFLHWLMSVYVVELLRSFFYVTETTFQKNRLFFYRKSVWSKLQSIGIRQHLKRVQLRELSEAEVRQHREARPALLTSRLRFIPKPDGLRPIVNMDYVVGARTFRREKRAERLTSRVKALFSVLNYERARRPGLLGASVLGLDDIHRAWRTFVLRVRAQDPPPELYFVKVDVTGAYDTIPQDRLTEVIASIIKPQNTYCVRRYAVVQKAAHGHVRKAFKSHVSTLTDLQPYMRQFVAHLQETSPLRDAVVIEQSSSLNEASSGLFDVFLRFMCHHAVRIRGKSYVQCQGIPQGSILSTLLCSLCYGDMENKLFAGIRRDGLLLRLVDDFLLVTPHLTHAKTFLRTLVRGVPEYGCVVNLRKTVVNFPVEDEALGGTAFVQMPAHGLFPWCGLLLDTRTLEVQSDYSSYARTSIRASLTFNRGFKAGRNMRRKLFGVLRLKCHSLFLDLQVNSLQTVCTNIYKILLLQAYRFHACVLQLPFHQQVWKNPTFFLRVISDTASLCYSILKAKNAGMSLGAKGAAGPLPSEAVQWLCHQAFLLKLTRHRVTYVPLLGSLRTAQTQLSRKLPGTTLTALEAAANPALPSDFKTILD
Protocol: The effect of substance (I) on human telomerase is determined by carrying out the so-called Telomeric Repeat Amplification Assay (TRAP) ELISA, based on the method of N. W. Kim et al.
This method is based on use of the polymerase chain reaction (PCR). This entails, in a first step, a number of (GGTTAG) motifs being attached by means of the telomerase activity to the 3′ end of a biotin-labeled oligonucleotide (TS=telomerase substrate). In a second step, the products extended in this way are amplified by the PCR technique using TS and RP (R=reverse) primers. In this way, a “ladder” of products in increments of 6 bases (initial size=50 nucleo-tides) is generated. During the amplification, DNP-labeled dCTP is incorporated into the PCR products. Detection and quantification of the synthesized telomerase products using a sandwich ELISA method are a measure of the telomerase enzymatic activity.
The telomerase products carry the biotin-labeled TS primers and bind to the surface of microtiter plates previously coated with streptavidin. An anti-DIG antibody conjugated to POD binds to the […] nucleotides incorporated during the amplification. After addition of the substrate TMB, the telomerase activity is visualized by […] via the onset of the color reaction by the enzyme POD. In this case, the measured absorption is directly proportional to the telomerase activity. […]

[8] = tested on: ERK1/2 protein; assay: Western blot analysis of ERK1/2 phosphorylation; format: cell-based, human; conditions: HCT8 WT, detectable even at IC50 dose
From the text: Phosphorylation of certain signal transduction pathways plays an essential role in the regulation of cell growth and gene expression. The protein ERK1/2 (MAP kinase) belongs to the MAP kinase signal transduction pathway.
Treatment of human colon carcinoma cells (HCT8 WT) with substance (I) leads to phosphorylation of this protein, which is detected in a Western blot analysis (FIG. 8).

[9] = tested on: HCT8 WT cells; assay: Coincubation cytotoxicity experiment with a specific ERK1/2 inhibitor; format: cell-based, human; conditions: 24 hours, different dosage ratios
Protocol: HCT8 WT cells were coincubated.

Row | Structure (SMILES) | cytotoxicity for the non-tumor cell lines compared with tumor cell lines ([1]; fibroblasts of the 3T3 and MCR 5 lines) | cross-resistance to the indicated cytostatics ([1]; resistant subclones versus native cell lines) | inhibition at 100 µg/mL ([2]; at 100 μg/ml, 160 ng cell nucleus extract, pBR322 plasmid DNA) [%] | concentration required for topoisomerase I inhibition as multiple of the IC50 of tumor cell growth [2] [times] | effect on cell cycle (BrdU uptake) [3] | induction of DNA double-strand breaks [4] | induction of DNA double-strand breaks [5] | inhibition of Tag polymerase (TSR8 template amplification) [6] | inhibition of human telomerase [7] | phosphorylation of the ERK1/2 protein [8] | cytotoxicity on coincubation with a specific ERK1/2 inhibitor (MAP kinase inhibitor) [9]
1 | CC(C)=CCC1=C(O)[C@]2(C(=O)c3ccccc3)C(=O)[C@@](CC=C(C)C)(CC(CC=C(C)C)C2(C)C)C1=O (stereo partly drawn) [Substance (I), 1-Benzoyl-8,8-dimethyl-2-hydroxy-3,5,7-tris-(3-methyl-2-butenyl)bicyclo[3.3.1]non-2-ene-4,9-dione] | considerably less | no cross-resistance | 100 | 20 | inhibition of the synthesis phase | significant amounts of double-strand breaks | substantial amounts of double-strand breaks | does not lead to a significant inhibition | Complete inhibition | dose-dependent phosphorylation | pronounced synergism
2 | CC[C@@]1(O)C(=O)OCc2c1cc1n(c2=O)Cc2cc3c(CN(C)C)c(O)ccc3nc2-1 [topotecan, reference compound] |  |  |  | 1000 |  |  |  |  |  |  | 
